Assay results reported in the kinase profiling compilation of Christmann-Franck et al. (2016).
Several values for one entry are separate records, joined by “and”; a condition that tells them apart may be missing. Equal entries are not always repeated.

Assays:
Experiment in all cases: radiometric filter-binding kinase assay, Kinase HotSpot
Settings in all cases: compound 0.5 µM; ATP 10 µM
[1] = molecular target: ABL2 (human) (UniProt P42684)
[2] = molecular target: ACVR1 (human) (UniProt Q04771)
Chain of ACVR1 (human) (Q04771 whole entry, looked up): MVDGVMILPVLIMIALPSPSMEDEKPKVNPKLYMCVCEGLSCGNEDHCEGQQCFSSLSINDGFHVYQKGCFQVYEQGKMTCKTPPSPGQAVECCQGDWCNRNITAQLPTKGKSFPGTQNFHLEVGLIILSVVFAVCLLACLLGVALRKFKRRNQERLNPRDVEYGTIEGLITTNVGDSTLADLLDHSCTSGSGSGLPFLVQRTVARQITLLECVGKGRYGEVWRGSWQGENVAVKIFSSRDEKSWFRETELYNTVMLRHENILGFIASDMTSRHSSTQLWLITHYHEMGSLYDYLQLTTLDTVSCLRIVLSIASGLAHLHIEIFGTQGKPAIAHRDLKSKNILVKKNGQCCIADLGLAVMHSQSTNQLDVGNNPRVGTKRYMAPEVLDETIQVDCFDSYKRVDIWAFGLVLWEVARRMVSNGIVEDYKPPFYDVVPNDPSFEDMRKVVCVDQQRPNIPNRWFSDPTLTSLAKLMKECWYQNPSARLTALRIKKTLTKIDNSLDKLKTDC

[3] = molecular target: ADRBK1 (human) (UniProt P25098)
[4] = molecular target: AKT3 (human) (UniProt Q9Y243)
Chain of AKT3 (human) (Q9Y243 whole entry, looked up): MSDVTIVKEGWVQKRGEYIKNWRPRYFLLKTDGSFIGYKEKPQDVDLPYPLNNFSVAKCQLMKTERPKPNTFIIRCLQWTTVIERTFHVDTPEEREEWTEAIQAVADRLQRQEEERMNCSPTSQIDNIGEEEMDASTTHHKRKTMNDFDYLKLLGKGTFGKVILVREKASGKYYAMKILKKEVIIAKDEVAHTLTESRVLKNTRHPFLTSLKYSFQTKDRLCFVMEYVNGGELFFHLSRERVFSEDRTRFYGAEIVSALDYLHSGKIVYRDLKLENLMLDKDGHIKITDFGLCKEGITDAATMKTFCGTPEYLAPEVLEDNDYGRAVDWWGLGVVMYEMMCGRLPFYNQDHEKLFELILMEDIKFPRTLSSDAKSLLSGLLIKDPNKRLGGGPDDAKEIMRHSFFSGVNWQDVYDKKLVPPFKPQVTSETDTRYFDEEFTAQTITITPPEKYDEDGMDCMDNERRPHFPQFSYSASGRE

[5] = molecular target: CAMK1 (human) (UniProt Q14012)
[6] = molecular target: CAMK1D (human) (UniProt Q8IU85)
[7] = molecular target: CAMK2B (human) (UniProt Q13554)
[8] = molecular target: CAMKK2 (human) (UniProt Q96RR4)
[9] = molecular target: CDK1 CCNA2 (human) (UniProt P06493+P20248)
Chain of CDK1 CCNA2 (human) (P06493 whole entry, looked up): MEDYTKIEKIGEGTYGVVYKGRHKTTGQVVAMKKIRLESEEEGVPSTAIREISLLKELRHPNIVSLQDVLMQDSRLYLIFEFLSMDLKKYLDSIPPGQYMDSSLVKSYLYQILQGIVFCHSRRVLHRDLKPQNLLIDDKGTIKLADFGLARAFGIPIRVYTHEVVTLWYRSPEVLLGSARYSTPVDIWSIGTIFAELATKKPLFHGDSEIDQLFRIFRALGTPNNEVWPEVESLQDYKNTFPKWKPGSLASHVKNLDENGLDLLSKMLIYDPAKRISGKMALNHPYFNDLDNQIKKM
Chain of CDK1 CCNA2 (human) (P20248 whole entry, looked up): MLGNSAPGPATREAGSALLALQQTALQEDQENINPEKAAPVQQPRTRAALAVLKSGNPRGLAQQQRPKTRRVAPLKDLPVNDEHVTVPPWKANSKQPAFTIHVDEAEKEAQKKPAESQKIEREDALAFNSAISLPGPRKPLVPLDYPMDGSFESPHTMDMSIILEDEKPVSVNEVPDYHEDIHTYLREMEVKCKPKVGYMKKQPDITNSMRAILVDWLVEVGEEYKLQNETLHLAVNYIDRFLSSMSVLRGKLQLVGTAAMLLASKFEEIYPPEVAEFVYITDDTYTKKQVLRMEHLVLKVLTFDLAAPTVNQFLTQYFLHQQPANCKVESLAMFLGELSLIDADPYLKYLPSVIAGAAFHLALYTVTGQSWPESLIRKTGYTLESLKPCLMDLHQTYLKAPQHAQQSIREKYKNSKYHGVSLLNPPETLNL

[10] = molecular target: CDK2 CCNE1 (human) (UniProt P24941+P24864)
[11] = molecular target: CDK4 CCND1 (human) (UniProt P24385+P11802)
[12] = molecular target: CDK4 CCND3 (human) (UniProt P30281+P11802)
[13] = molecular target: CDK9 CCNT1 (human) (UniProt P50750+O60563)
[14] = molecular target: CLK2 (human) (UniProt P49760)
[15] = molecular target: CSNK1G3 (human) (UniProt Q9Y6M4)
[16] = molecular target: EGFR (human) (UniProt P00533)
Chain of EGFR (human) (P00533 whole entry, looked up): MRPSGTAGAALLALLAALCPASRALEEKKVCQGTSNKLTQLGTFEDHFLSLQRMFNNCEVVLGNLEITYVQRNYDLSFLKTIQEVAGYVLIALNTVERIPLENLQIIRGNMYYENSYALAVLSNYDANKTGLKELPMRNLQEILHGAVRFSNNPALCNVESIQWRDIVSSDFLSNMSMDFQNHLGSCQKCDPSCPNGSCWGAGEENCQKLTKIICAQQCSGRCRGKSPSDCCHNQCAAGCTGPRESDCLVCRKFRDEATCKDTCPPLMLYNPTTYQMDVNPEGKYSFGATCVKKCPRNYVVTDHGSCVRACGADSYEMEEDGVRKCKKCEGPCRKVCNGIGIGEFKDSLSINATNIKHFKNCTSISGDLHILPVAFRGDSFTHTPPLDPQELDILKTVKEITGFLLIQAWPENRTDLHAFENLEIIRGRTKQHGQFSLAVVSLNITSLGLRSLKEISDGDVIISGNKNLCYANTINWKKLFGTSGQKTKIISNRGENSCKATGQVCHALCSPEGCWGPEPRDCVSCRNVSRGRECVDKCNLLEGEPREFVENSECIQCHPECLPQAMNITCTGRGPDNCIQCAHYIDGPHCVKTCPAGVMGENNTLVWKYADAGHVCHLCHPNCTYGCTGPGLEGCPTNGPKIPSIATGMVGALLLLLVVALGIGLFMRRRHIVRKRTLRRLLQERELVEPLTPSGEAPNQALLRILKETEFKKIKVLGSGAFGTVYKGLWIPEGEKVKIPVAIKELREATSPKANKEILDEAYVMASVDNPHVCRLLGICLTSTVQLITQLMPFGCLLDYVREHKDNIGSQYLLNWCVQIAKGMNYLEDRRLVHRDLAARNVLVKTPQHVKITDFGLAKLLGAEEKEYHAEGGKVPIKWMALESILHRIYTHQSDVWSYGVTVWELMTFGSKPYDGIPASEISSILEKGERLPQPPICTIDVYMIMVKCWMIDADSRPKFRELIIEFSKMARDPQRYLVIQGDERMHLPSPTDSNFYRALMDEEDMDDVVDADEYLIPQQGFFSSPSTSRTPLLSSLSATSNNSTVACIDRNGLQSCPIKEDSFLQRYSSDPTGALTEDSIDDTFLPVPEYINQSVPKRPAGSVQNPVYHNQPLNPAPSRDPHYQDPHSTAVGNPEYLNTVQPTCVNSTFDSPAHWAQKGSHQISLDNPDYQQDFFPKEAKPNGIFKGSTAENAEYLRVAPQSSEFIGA

[17] = molecular target: EPHA7 (human) (UniProt Q15375)
[18] = molecular target: GRK6 (human) (UniProt P43250)
[19] = molecular target: GRK7 (human) (UniProt Q8WTQ7)
[20] = molecular target: HIPK4 (human) (UniProt Q8NE63)
[21] = molecular target: IKBKE (human) (UniProt Q14164)
[22] = molecular target: LIMK1 (human) (UniProt P53667)
Chain of LIMK1 (human) (P53667 whole entry, looked up): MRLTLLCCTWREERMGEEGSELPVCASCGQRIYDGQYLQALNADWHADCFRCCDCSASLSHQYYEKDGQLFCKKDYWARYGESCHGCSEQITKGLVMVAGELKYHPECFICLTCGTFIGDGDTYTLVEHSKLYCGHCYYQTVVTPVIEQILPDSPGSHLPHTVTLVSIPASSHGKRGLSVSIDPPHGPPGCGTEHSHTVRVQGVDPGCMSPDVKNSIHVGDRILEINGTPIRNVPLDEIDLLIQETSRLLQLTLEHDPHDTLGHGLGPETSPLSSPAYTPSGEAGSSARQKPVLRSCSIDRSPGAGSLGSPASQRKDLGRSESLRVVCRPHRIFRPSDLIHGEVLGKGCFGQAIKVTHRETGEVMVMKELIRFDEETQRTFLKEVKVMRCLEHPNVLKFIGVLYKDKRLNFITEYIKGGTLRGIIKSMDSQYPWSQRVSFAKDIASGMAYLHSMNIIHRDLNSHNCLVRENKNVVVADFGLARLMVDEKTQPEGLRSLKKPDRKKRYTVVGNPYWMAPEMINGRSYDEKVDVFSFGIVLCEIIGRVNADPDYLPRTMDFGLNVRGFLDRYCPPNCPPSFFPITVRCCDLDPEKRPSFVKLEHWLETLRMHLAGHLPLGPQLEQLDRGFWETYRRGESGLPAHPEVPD

[23] = molecular target: MAP3K14 (human) (UniProt Q99558)
[24] = molecular target: MAP4K5 (human) (UniProt Q9Y4K4)
[25] = molecular target: MARK1 (human) (UniProt Q9P0L2)
[26] = molecular target: MET (human) (UniProt P08581)
[27] = molecular target: MLTK (human) (UniProt Q9NYL2)
[28] = molecular target: MST1R (human) (UniProt Q04912)
[29] = molecular target: NEK4 (human) (UniProt P51957)
[30] = molecular target: NEK7 (human) (UniProt Q8TDX7)
[31] = molecular target: NTRK3 (human) (UniProt Q16288)
[32] = molecular target: PHKG1 (human) (UniProt Q16816)
Chain of PHKG1 (human) (Q16816 whole entry, looked up): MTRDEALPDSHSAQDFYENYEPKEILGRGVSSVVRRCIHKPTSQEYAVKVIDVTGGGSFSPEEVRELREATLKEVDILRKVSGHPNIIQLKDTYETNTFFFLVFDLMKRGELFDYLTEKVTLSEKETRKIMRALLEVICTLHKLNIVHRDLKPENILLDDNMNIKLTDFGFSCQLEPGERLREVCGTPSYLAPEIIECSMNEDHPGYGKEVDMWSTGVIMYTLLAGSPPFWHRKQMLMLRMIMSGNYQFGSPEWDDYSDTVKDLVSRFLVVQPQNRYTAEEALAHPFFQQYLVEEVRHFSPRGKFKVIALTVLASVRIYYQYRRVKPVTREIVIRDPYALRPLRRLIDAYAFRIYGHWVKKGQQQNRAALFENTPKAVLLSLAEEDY

[33] = molecular target: PRKCB2 (human) (UniProt P05771)
[34] = molecular target: PRKCE (human) (UniProt Q02156)
[35] = molecular target: PRKD1 (human) (UniProt Q15139)
Chain of PRKD1 (human) (Q15139 whole entry, looked up): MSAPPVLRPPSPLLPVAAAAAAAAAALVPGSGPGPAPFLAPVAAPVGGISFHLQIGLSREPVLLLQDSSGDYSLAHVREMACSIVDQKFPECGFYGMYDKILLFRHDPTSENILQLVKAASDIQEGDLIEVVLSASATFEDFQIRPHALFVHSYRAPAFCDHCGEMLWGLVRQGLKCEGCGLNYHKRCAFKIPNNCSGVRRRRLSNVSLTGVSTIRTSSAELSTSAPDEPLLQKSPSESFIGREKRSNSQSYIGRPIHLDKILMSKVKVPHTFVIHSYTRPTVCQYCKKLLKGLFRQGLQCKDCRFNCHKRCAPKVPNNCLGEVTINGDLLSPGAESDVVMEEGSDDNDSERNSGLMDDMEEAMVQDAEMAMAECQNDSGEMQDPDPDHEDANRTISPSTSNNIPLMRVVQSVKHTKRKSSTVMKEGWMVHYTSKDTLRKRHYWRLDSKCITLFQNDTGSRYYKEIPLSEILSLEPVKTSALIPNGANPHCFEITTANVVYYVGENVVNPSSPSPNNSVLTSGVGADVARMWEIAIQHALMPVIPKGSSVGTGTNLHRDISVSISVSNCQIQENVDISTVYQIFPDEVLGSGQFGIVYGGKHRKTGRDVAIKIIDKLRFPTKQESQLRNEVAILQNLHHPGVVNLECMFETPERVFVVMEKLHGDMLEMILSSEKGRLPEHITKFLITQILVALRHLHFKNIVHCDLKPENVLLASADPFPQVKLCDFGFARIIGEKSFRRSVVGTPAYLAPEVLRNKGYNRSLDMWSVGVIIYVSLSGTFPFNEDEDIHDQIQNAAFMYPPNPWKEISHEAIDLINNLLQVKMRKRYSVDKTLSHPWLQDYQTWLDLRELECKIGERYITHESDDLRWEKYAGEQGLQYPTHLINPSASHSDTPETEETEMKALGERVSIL

[36] = molecular target: PRKG1 (human) (UniProt Q13976)
[37] = molecular target: PTK2 (human) (UniProt Q05397)
[38] = molecular target: STK10 (human) (UniProt O94804)
[39] = molecular target: STK11 (human) (UniProt Q15831)
[40] = molecular target: STK39 (human) (UniProt Q9UEW8)
[41] = molecular target: TGFBR1 (human) (UniProt P36897)
[42] = molecular target: TSSK2 (human) (UniProt Q96PF2)

O=C(CCCc1ccc(-c2ccccc2F)cc1)Nc1ccc(O)cc1
residual activity [1]: 95.3%
residual activity [2]: 95.2%
residual activity [3]: 105%
residual activity [4]: 111%
residual activity [5]: 101%
residual activity [6]: 122%
residual activity [7]: 99.9%
residual activity [8]: 86.6%
residual activity [9]: 93.7%
residual activity [10]: 91.9%
residual activity [11]: 102%
residual activity [12]: 110%
residual activity [13]: 103%
residual activity [14]: 103%
residual activity [15]: 104%
residual activity [16]: 87.9%
residual activity [17]: 104%
residual activity [18]: 104%
residual activity [19]: 109%
residual activity [20]: 105%
residual activity [21]: 98.2%
residual activity [22]: 106%
residual activity [23]: 99.2%
residual activity [24]: 94.1%
residual activity [25]: 96.7%
residual activity [26]: 114%
residual activity [27]: 97.8%
residual activity [28]: 106%
residual activity [29]: 103%
residual activity [30]: 97.3%
residual activity [31]: 96.3%
residual activity [32]: 89.1%
residual activity [33]: 102%
residual activity [34]: 103%
residual activity [35]: 98.4%
residual activity [36]: 95.5% and 99.9%
residual activity [37]: 102%
residual activity [38]: 95.3%
residual activity [39]: 97.4%
residual activity [40]: 95.4%
residual activity [41]: 102%
residual activity [42]: 115%

CCn1cnc2c(Nc3cccc(Cl)c3)nc(N[C@@H]3CCCC[C@@H]3N)nc21
residual activity [1]: 65.7%
residual activity [2]: 92.7%
residual activity [3]: 96.5%
residual activity [4]: 95.8%
residual activity [5]: 103%
residual activity [6]: 96.7%
residual activity [7]: 110%
residual activity [8]: 86.1%
residual activity [9]: 60.7%
residual activity [10]: 16.8%
residual activity [11]: 89.9%
residual activity [12]: 71.5%
residual activity [13]: 53.7%
residual activity [14]: 26.6%
residual activity [15]: 45.9%
residual activity [16]: 98.1%
residual activity [17]: 87.6%
residual activity [18]: 99.6%
residual activity [19]: 97.9%
residual activity [20]: 88.4%
residual activity [21]: 99.5%
residual activity [22]: 108%
residual activity [23]: 85.1%
residual activity [24]: 91.1%
residual activity [25]: 93.1%
residual activity [26]: 102%
residual activity [27]: 104%
residual activity [28]: 99.6%
residual activity [29]: 96.8%
residual activity [30]: 86%
residual activity [31]: 23.4%
residual activity [32]: 62.8%
residual activity [33]: 79.4%
residual activity [34]: 90.6%
residual activity [35]: 90.8%
residual activity [36]: 91.4% and 91.8%
residual activity [37]: 83.1%
residual activity [38]: 75.1%
residual activity [39]: 78%
residual activity [40]: 106%
residual activity [41]: 95.6%
residual activity [42]: 109%

Cn1sc(=O)n(Cc2ccccc2)c1=O
residual activity [1]: 96.7%
residual activity [2]: 102%
residual activity [3]: 96.7%
residual activity [4]: 96.6%
residual activity [5]: 100%
residual activity [6]: 97.1%
residual activity [7]: 102%
residual activity [8]: 95.2%
residual activity [9]: 104%
residual activity [10]: 95.1%
residual activity [11]: 98.2%
residual activity [12]: 114%
residual activity [13]: 94.2%
residual activity [14]: 98.5%
residual activity [15]: 114%
residual activity [16]: 105%
residual activity [17]: 105%
residual activity [18]: 104%
residual activity [19]: 112%
residual activity [20]: 98.2%
residual activity [21]: 96.4%
residual activity [22]: 101%
residual activity [23]: 81.6%
residual activity [24]: 107%
residual activity [25]: 107%
residual activity [26]: 64.2%
residual activity [27]: 100%
residual activity [28]: 101%
residual activity [29]: 98%
residual activity [30]: 101%
residual activity [31]: 107%
residual activity [32]: 102%
residual activity [33]: 111%
residual activity [34]: 94.8%
residual activity [35]: 101%
residual activity [36]: 93.2% and 95.9%
residual activity [37]: 99.5%
residual activity [38]: 98.1%
residual activity [39]: 106%
residual activity [40]: 97.9%
residual activity [41]: 97.2%
residual activity [42]: 100%
